# Reference: patent publication US6750194B1, “Methods of identifying compounds for regulating muscle mass or function using vasoactive intestinal peptide receptors” (The Procter & Gamble Company, priority 2000, dated 2004)
# Ends that are not written are not given here.
# Tests used:
# [1] = tested on: glucocorticoid-induced atrophied tibialis anterior and medial gastrocnemius muscles; experiment: Mouse glucocorticoid (dexamethasone)-induced atrophy model (FIG. 3); format: in vivo; details: male mice, dexamethasone 1.2 mg/kg/d in drinking water; 0.1 and 0.3 mg/kg s.c. 2x daily + theophylline 30 mg/kg i.p., nine days
# Procedure: Legend for the X-axis: 1: Saline+Dexamethasone (1.2 mg/kg/day included in the drinking water), 2: PACAP-38 (0.1 mg/kg)+Dexamethasone+T, 3: PACAP-38 (0.3 mg/kg)+Dexamethasone+T, 4: VPAC1R agonist (0.1 mg/kg)+Dexamethasone+T, 5: VPAC1R agonist (0.3 mg/kg)+Dexamethasone+T, 6: VPAC2R agonist (0.1 mg/kg)+Dexamethasone+T, 7: VPAC2R agonist (0.3 mg/kg)+Dexamethasone+T.
# (VPAC1R agonist), the VPAC2 receptor selective agonist, Ro 25-1553 (VPAC2R agonist), or the VPAC1/VPAC2 receptor nonselective agonist, PACAP-38. Following the addition of the glucocorticoid, dexamethasone to the drinking water (1.2 mg/kg/d), male mice were injected subcutaneously in the midscapular region twice daily, with either the above indicated agents at the doses indicated in FIGS. 3A and 3B or vehicle control (physiological saline) for nine days. These agonists were co-administered with twice daily intra-peritoneal dosing of the phosphodiesterase inhibitor theophylline (T—30 mg/kg). Nine days following the initiation of dosing of the VPAC receptor agonists and dexamethasone, the medial gastrocnemius and tibialis anterior muscles were removed and weighed to determine the degree of atrophy. […] Statistical significance of the results were determined using ANCOVA.
# The glucocorticoid induced atrophy model involves the administration of a glucocorticoid to the test animal, e.g. 1.2 mg/kg/day of dexamethasone in the drinking water. Typically, in untreated animals, skeletal muscle mass is reduced 30-50% following ten days of dexamethasone administration. Concomitantly with, or following glucocorticoid administration, test compounds are administered e.g., by injection or by continuous infusion to determine their effect on glucocorticoid induced skeletal muscle atrophy. At various times following glucocorticoid administration, the extent of atrophy in the affected muscles is analyzed as described above for the denervation model.
# [2] = target: T1, VPAC1 receptor (Homo sapiens, UniProt P32241); details: relative to PACAP38; cited from earlier work
# T1 sequence (P32241 31-457): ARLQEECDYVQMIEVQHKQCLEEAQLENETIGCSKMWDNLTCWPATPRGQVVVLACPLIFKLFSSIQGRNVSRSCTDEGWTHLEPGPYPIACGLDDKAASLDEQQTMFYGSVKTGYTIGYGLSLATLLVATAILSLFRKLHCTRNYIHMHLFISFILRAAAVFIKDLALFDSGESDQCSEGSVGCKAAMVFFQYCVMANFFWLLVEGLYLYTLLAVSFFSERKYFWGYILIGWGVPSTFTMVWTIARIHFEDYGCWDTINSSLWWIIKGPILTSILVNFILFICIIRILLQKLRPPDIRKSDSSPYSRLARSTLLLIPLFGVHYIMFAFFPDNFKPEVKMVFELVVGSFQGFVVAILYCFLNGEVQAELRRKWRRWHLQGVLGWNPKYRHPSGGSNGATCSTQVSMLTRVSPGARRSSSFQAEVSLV
# [3] = tested on: denervated tibialis anterior and medial gastrocnemius muscles; experiment: Mouse denervation atrophy model, agonists subcutaneously 2x daily with theophylline (FIG. 1); format: in vivo; details: male mice, right sciatic nerve denervation; 0.1 and 0.3 mg/kg s.c. 2x daily + theophylline 30 mg/kg i.p. 2x daily, nine days; versus saline
# Procedure: Legend for the X-axis: A: Saline, B: VPAC1R agonist (0.1 mg/kg)+T, C: VPAC1R agonist (0.3 mg/kg)+T, D: VPAC2R agonist (0.1 mg/kg)+T, E: VPAC2R agonist (0.3 mg/kg)+T, F: PACAP-38 (0.1 mg/kg)+T, G: PACAP-38 (0.3 mg/kg)+T.
# (VPAC1R agonist), the VPAC2 receptor selective agonist, Ro 25-1553 (VPAC2R agonist), or the VPAC1/VPAC2 receptor nonselective agonist, PACAP-38. Following denervation of the right sciatic nerve, male mice were injected subcutaneously in the midscapular region twice daily, with either the above indicated agents at the doses indicated in FIGS. 1A and 1B or vehicle control (physiological saline) for nine days. These agonists were co-administered with twice daily intra-peritoneal dosing of the phosphodiesterase inhibitor theophylline (T-30 mg/kg) (included to increase the magnitude and the duration of action of cAMP signals induced by the VPAC receptor agonists). On day nine, the medial gastrocnemius and tibialis anterior muscles were removed and weighed to determine the degree of atrophy. […] Statistical significance of the results were determined using ANCOVA (Douglas C. Montgomery, Design and Analysis of Experiments, John Wiley and Sons, New York (2nd ed. 1984)).
# The sciatic nerve denervation atrophy model involves anesthetizing the animal followed by the surgical removal of a short segment of either the right or left sciatic nerve, e.g. in mice the sciatic nerve is isolated approximately at the midpoint along the femur and a 3-5 mm segment is removed. This denervates the lower hind limb musculature resulting in atrophy of these muscles. Typically, innervation to the biceps femoris is left intact to provide satisfactory motion of the knee for virtually normal ambulation. Typically, in untreated animals, muscle mass of the denervated muscles is reduced 30-50% ten days following denervation. Following denervation, test compounds are administered e.g., by injection or by continuous infusion, e.g. via implantation of an osmotic minipump (e.g. Alza, Palo Alto, Calif.), to determine their effect on denervation induced skeletal muscle atrophy. At various times following denervation, the animals are euthanized and lower leg muscles are dissected rapidly from both the denervated and nondenervated legs, the muscles, cleaned of tendons and connective tissue, are weighed. The extent of atrophy in the affected muscles is analyzed, for example, by measuring muscle mass, muscle cross-sectional area, myofiber cross-sectional area or contractile protein content.
# [4] = tested on: skeletal muscle atrophy; experiment: Animal models of skeletal muscle atrophy, summary of FIGS. 1-5; format: in vivo; details: theophylline alone
# [5] = target: T2, VPAC2 receptor (Homo sapiens, UniProt P41587); details: relative to PACAP38; cited from earlier work
# T2 sequence (P41587 24-438): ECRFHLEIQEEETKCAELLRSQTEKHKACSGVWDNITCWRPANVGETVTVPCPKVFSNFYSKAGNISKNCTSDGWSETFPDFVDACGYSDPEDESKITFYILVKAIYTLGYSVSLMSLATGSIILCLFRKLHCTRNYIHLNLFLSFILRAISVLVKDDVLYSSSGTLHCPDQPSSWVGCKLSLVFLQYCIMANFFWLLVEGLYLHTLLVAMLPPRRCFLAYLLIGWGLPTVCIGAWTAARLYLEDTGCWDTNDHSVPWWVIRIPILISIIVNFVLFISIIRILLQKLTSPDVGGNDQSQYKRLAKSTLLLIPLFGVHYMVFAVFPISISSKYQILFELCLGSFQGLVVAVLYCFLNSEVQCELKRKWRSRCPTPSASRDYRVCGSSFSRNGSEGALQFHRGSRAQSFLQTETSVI
# [6] = tested on: denervated tibialis anterior and extensor digitorum longus (EDL) muscles; experiment: Rat denervation atrophy model (FIG. 5); format: in vivo; details: male rats, right sciatic nerve denervation; 0.03, 0.1, 0.3 mg/kg s.c. 2x daily + theophylline 30 mg/kg i.p., nine days
# Procedure: (§1) Legend for the X-axis: A: Saline, B: VPAC2R agonist (0.03 mg/kg)+T, C: VPAC2R agonist (0.1 mg/kg)+T, D: VPAC2R agonist (0.3 mg/kg)+T.
# Following denervation of the right sciatic nerve, male rats were injected subcutaneously in the midscapular region twice daily, with either the VPAC2R receptor agonist at the doses indicated in FIGS. 5A and 5B or vehicle control (physiological saline) for nine days. The VPAC2R receptor agonist was co-administered with twice daily intra-peritoneal dosing of the phosphodiesterase inhibitor theophylline (T—30 mg/kg). On day nine, the tibialis anterior and extensor digitorum longus (EDL) muscles were removed and weighed to determine the degree of atrophy. […] Statistical significance of the results were determined using ANCOVA.
# (§2) The sciatic nerve denervation atrophy model involves anesthetizing the animal followed by the surgical removal of a short segment of either the right or left sciatic nerve, e.g. in mice the sciatic nerve is isolated approximately at the midpoint along the femur and a 3-5 mm segment is removed. This denervates the lower hind limb musculature resulting in atrophy of these muscles. […] The extent of atrophy in the affected muscles is analyzed, for example, by measuring muscle mass, muscle cross-sectional area, myofiber cross-sectional area or contractile protein content.
# [7] = tested on: denervated and non-denervated (control) tibialis anterior and medial gastrocnemius muscles; experiment: Mouse denervation atrophy model, continuous infusion by osmotic minipump (FIG. 2); format: in vivo; details: male mice, continuous infusion by osmotic minipump 0.3, 1, 3 mg/kg daily, no theophylline, day nine
# Procedure: Legend for the X-axis: A: water infused, B: VPAC1R agonist (0.3 mg/kg), C: VPAC1R agonist (1 mg/kg), D: VPAC1R agonist (3 mg/kg), E: VPAC2R agonist (0.3 mg/kg), F: VPAC2R agonist (1 mg/kg), G: VPAC2R agonist (3 mg/kg), H: PACAP-38 (0.3 mg/kg), I: PACAP-38 (1 mg/kg), PACAP-38 (3 mg/kg).
# (VPAC1R agonist), the VPAC2 receptor selective agonist, Ro 25-1553 (VPAC2R agonist), or the VPAC1/VPAC2 receptor nonselective agonist, PACAP-38. Following denervation of the right sciatic nerve, male mice were dosed with the above indicated agents or vehicle control (physiological saline) by continuous infusion using an ALZeT osmotic minipump at 5 μl/hr until the end of the experimental period. The daily delivered dose of the agents are as indicated on FIGS. 2A and 2B. Minipump implantation was performed at the same time as the sciatic nerve denervation. On day nine the medial gastrocnemius and tibialis anterior muscles were removed and weighed to determine the degree of atrophy. […] Statistical significance of the results were determined using ANCOVA.
# as §2, with “muscles. Typically, innervation to the biceps femoris is left intact to provide satisfactory motion of the knee for virtually normal ambulation. Typically, in untreated animals, muscle mass of the denervated muscles is reduced 30-50% ten days following denervation.” for “muscles.”
# [8] = tested on: casting-induced atrophied tibialis anterior muscle and normal medial gastrocnemius muscle; experiment: Mouse disuse (casting) atrophy model (FIG. 4); format: in vivo; details: male mice, right hind leg cast; 0.03, 0.1, 0.3 mg/kg s.c. 2x daily + theophylline 30 mg/kg i.p., nine days
# Procedure: as §1
# Following casting of the right hind leg, male mice were injected subcutaneously in the midscapular region twice daily, with either the above indicated agent at the doses indicated in FIGS. 4A and 4B or vehicle control (physiological saline) for nine days. The VPAC2R agonist was co-administered with twice daily intra-peritoneal dosing of the phosphodiesterase inhibitor theophylline (T—30 mg/kg). On day nine, the medial gastrocnemius and tibialis anterior muscles were removed and weighed to determine the degree of atrophy. […] Statistical significance of the results were determined using ANCOVA.
# The leg casting disuse atrophy model involves casting one hind leg of an animal from the knee down through the foot. Typically, muscle mass is reduced 20-40% after ten days of casting. Following casting, test compounds are administered by injection or by continuous infusion via implantation of an osmotic minipump (e.g. Alza, Palo Alto, Calif.) to determine their effect on leg casting induced skeletal muscle atrophy. At various times following leg casting, the extent of atrophy in the affected muscles is analyzed as described above for the denervation model.
# [9] = tested on: atrophy of the skeletal muscle of the entire body due to disuse; experiment: Prophylactic treatment of skeletal muscle atrophy in a comatose subject (Example 11); format: in vivo; details: human 50 kg, 3 ml of 500 mg/ml with D,L lactic and glycolic acid copolymer i.m. once each month
# Procedure: A human subject weighing 50 kg is admitted to the hospital in a comatose state. The subject is treated to prevent atrophy of the skeletal muscle of the entire body due to disuse while in the comatose state. Specifically, once each month while in the coma, the subject is administered, via intramuscular injection, 3 ml of an aqueous solution of pH 6.0 comprising the following: […]
compound,measurement,setting,value
"[K^15, R^16, L^27VIP(1-7), GRF(8-27)-NH2]",muscle atrophy of the tibialis anterior induced by glucocorticoid administration (FIG. 3A),[1],inhibited muscle atrophy
same,potency as VPAC1 receptor selective agonist,[2],potency similar to PACAP38
same,"atrophy of the denervated medial gastrocnemius muscle (muscle weight, FIG. 1B)",[3],inhibited atrophy
"Cn1c(=O)c2[nH]cnc2n(C)c1=O [Theophylline, theophylline]",effect of theophylline administered by itself in the atrophy models,[4],no effect
"PACAP-38 (HSDGIFTDSYSRYRKQMAVKKYLAAVLGKRYKQRVKNK; ends and bridges not checked; UniProt P18509 132-169, looked up)",muscle atrophy of the medial gastrocnemius induced by glucocorticoid administration (FIG. 3B),[1],inhibits muscle atrophy
same,"atrophy of the denervated medial gastrocnemius muscle (muscle weight, FIG. 1B)",[3],inhibited atrophy
same,"atrophy of the denervated tibialis anterior muscle (muscle weight, FIG. 1A)",[3],inhibited atrophy
Ro 25-1553,potency as VPAC2 receptor selective agonist,[5],potency similar to PACAP38
same,atrophy of the denervated EDL muscle (FIG. 5B),[6],inhibited atrophy
same,atrophy of the denervated tibialis anterior muscle (FIG. 5A),[6],inhibited atrophy
same,"atrophy of the denervated tibialis anterior muscle (muscle weight, FIG. 2A)",[7]; sciatic denervation,inhibited atrophy
same,hypertrophy of the non-denervated (control) medial gastrocnemius muscle (FIG. 2B),[7],induced hypertrophy
same,hypertrophy of the non-denervated (control) tibialis anterior muscle (FIG. 2A),[7],induced hypertrophy
same,muscle atrophy of the medial gastrocnemius induced by glucocorticoid administration (FIG. 3B),[1],inhibited muscle atrophy
same,muscle atrophy of the tibialis anterior induced by glucocorticoid administration (FIG. 3A),[1],inhibited muscle atrophy
same,disuse-induced atrophy of the tibialis anterior muscle (FIG. 4A),[8],inhibited disuse-induced atrophy
same,"hypertrophy of the medial gastrocnemius muscle (normal, FIG. 4B)",[8],induced hypertrophy
same,"atrophy of the denervated medial gastrocnemius muscle (muscle weight, FIG. 1B)",[3],inhibited atrophy
same,"atrophy of the denervated tibialis anterior muscle (muscle weight, FIG. 1A)",[3],inhibited atrophy
same,skeletal muscle mass and physical therapy needs,[9],measurable preservation of skeletal muscle mass and reduced physical therapy needs
